Laboratory results as given in patent publication US9958439B2, “Carbohydrate detection” (RICHTER LIFE SCIENCE DEVELOPMENT AB, priority 2012, dated 2018).
Read-outs that look alike come from different tables or passages of the source.

How the values were obtained:
[1] = for RFU change (Correlation analysis): probe-specific excitation λ, emission 545 nm; for carbohydrate can be detected and/or differentiated by the LCO: conclusion from change in signal magnitude and/or shift in λmax
Procedure: (§1) The excitation spectrum of the probe was analyzed for wavelengths 300-500 nm with emission read at 545 nm.
(§2) 3 μM of each probe was applied to serial two fold dilutions of the insoluble carbohydrate. Respective probes were excited at wavelengths unique to each probe (specified in figure), and emission was read at 545 nm.
(§3) Serial dilutions of carbohydrate suspensions were prepared in dH2O. Concentrations ranging from 10 to 0.039 mg/ml was used for β-1,3-glucan, cellulose and chitin, whereas 5 to 0.019 mg/ml was used for sodium alginate, glucose, amylose, glycogen, cellulobiose, heparin, chondroitin sulfate A. 3 μM of each LCO probe was added to 1 ml aliquots of each concentration of carbohydrate, after which 100 μl was dispensed in triplicates into 96 well plates. Excitation spectra were collected by exciting the sample from 300 to 500 nm and detecting emission at 545 nm. Detection of carbohydrate is concluded when there is a reproducible change in λmax and/or RFU intensity with reference to the negative control. Data from three concentrations, as well as the negative control are shown for each carbohydrate as specified in respective figure.
(§4) The excitation wavelength (emission detected at 545 nm) selected for each LCO is either (1) the λmax, or (2) the excitation wavelength which suffers the lowest background. A linear regression analysis is performed to determine the relationship between the carbohydrate concentration and RFU.

[2] = Procedure: 3 μM of each probe was applied to serial two fold dilutions of the insoluble carbohydrate of which the concentration shown here are 5 mg/ml (_.), 2.5 mg/ml (. . . ), 1.25 mg/ml (__) and 0 mg/ml (_). The excitation spectrum of the probe was analyzed for wavelengths 300-500 nm with emission read at 545 nm.
as §2, §3, §4

[3] = for RFU change (Correlation analysis): probe-specific excitation λ, emission 545 nm; for carbohydrate can be detected and/or differentiated by the LCO: conclusion from change in signal magnitude and/or shift in λmax; remark: listed apart in the source
Procedure: (§5) 3 μM of each probe was applied to serial two fold dilutions of the carbohydrate of which the concentration shown here are 5 mg/ml (_.), 2.5 mg/ml (. . . ) 1.25 mg/ml (__) and 0 mg/ml (_). The excitation spectrum of the probe was analyzed for wavelengths 300-500 nm with emission read at 545 nm.
(§6) 3 μM of each probe was applied to serial two fold dilutions of the carbohydrate. Respective probes were excited at wavelengths unique to each probe (specified in figure), and emission was read at 545 nm.
as §3, §4

[4] = for RFU change (Correlation analysis): probe-specific excitation λ, emission 545 nm; for carbohydrate can be detected and/or differentiated by the LCO: conclusion from change in signal magnitude and/or shift in λmax; for Gradient Parameters (gradient of regression line) / Linear relationship / Quality of Gradient: linear regression
Procedure: 3 μM of each probe was applied to serial two fold dilutions of the carbohydrate of which the concentration shown here are 5 mg/ml (_.), 2.5 mg/ml (. . . ), 1.25 mg/ml (__) and 0 mg/ml (_). The excitation spectrum of the probe was analyzed for wavelengths 300-500 nm with emission read at 545 nm.
as §6, §3, §4

[5] = remark: listed apart in the source
Procedure: as §5
3 μM of each probe was applied to serial two fold dilutions of the carbohydrate. Respective probes were excited at wavelengths unique to each probe (specified in figure), and emission was read at 545 nm. […] The mean increase in signal (_) with [Glucose] and the fitted regression line (__) is shown.
as §3, §4

[6] = remark: listed apart in the source
Procedure: as §1, §6, §3, §4

[7] = Chitin 10-[…], 3 μM probe, spectral analysis, Excitation 300-500, Emission 545
[8] = cellulose concentration vs RFU, linear regression
[9] = chitin concentration vs RFU, linear regression
[10] = β-1,3-glucan concentration vs RFU, linear regression
[11] = sodium alginate concentration vs RFU, linear regression
[12] = Cellulobiose 5-0.019 mg/ml, 3 μM probe, spectral analysis, Excitation 300-500, Emission 545
[13] = amylose concentration vs RFU, linear regression
[14] = cellulobiose concentration vs RFU, linear regression
[15] = Glycogen 5-0.019 mg/ml, 3 μM probe, spectral analysis, Excitation 300-500, Emission 545
[16] = glucose concentration vs RFU, linear regression
[17] = Chondroitin Sulfate A 5-0.019 mg/ml, 3 μM probe, spectral analysis, Excitation 300-500, Emission 545
[18] = Chondroitin Sulfate A concentration vs RFU, linear regression

SMILES: O=C([O-])CC[C@H](NC(=O)Cc1cc(-c2cccs2)sc1-c1ccc(-c2sc(-c3cccs3)cc2CC(=O)N[C@@H](CCC(=O)[O-])C(=O)[O-])s1)C(=O)[O-].[Na+].[Na+].[Na+].[Na+] [pHTA-Glu, penta Hydrogen Thiophene Acetic acid Glutamic acid]
- RFU change (Correlation analysis) ([1]; Cellulose 10-[…], 3 μM probe): Decrease
- RFU change (Signal deviation with increasing [Carbohydrate]) ([1]; Cellulose 10-[…], 3 μM probe, spectral analysis, Excitation 300-500, Emission 545): Unclear
- RFU change (Correlation analysis) ([1]; Chitin 10-[…], 3 μM probe): Increases
- RFU change (Signal deviation with increasing [Carbohydrate]) [1, 7]: Increases
- λmax change [1, 7]: Redshift
- carbohydrate can be detected and/or differentiated by the LCO ([1]; Chitin): can be detected and/or differentiated
- Gradient Parameters (gradient of regression line) [1, 8]: −139.6 ± 344.8
- Quality of Gradient [1, 8]: Horizontal
- Gradient Parameters (gradient of regression line) [1, 9]: 2824 ± 156.6
- Linear relationship [1, 9]: Significant
- Quality of Gradient [1, 9]: Positive
- Sensitivity ([1]; to cellulose): No
- Sensitivity ([1]; to chitin): Yes
- Sensitivity ([1]; to β-1,3-glucan): Yes
- carbohydrate can be detected and/or differentiated by the LCO ([1]; β-1,3-Glucan): can be detected and/or differentiated
- RFU change (Correlation analysis) ([1]; β-1,3-glucan 10-[…], 3 μM probe): Decrease
- RFU change (Signal deviation with increasing [Carbohydrate]) ([1]; β-1,3-glucan 10-[…], 3 μM probe, spectral analysis, Excitation 300-500, Emission 545): Decrease
- Gradient Parameters (gradient of regression line) [1, 10]: −898.7 ± 117.0
- Quality of Gradient [1, 10]: Negative
- RFU change (Correlation analysis) ([2]; Sodium alginate 5-0.019 mg/ml, 3 μM probe, probe-specific excitation λ, emission 545 nm): Increases
- RFU change (Signal deviation with increasing [Carbohydrate]) ([2]; Sodium alginate 5-0.019 mg/ml, 3 μM probe, spectral analysis, Excitation 300-500, Emission 545): Increases
- Gradient Parameters (gradient of regression line) [2, 11]: 88.7 ± 62.0
- Quality of Gradient [2, 11]: Horizontal
- Sensitivity ([2]; to sodium alginate): No
- RFU change (Correlation analysis) ([3]; Amylose 5-0.019 mg/ml, 3 μM probe): Increases
- RFU change (Signal deviation with increasing [Carbohydrate]) ([3]; Amylose 5-0.019 mg/ml, 3 μM probe, spectral analysis, Excitation 300-500, Emission 545): Increases
- carbohydrate can be detected and/or differentiated by the LCO ([3]; Amylose): can be detected and/or differentiated
- RFU change (Correlation analysis) ([3]; Cellulobiose 5-0.019 mg/ml, 3 μM probe): Increases
- RFU change (Signal deviation with increasing [Carbohydrate]) [3, 12]: Increases
- λmax change [3, 12]: No change
- carbohydrate can be detected and/or differentiated by the LCO ([3]; Cellulobiose): can be detected and/or differentiated
- Gradient Parameters (gradient of regression line) [3, 13]: 493.6 ± 346.9
- Quality of Gradient [3, 13]: Horizontal
- Gradient Parameters (gradient of regression line) [3, 14]: 178.6 ± 35.1
- Linear relationship [3, 14]: Significant
- Quality of Gradient [3, 14]: Positive
- Sensitivity ([3]; to amylose): Yes
- Sensitivity ([3]; to cellulobiose): Yes
- RFU change (Correlation analysis) ([4]; Glycogen 5-0.019 mg/ml, 3 μM probe): Decreases
- RFU change (Signal deviation with increasing [Carbohydrate]) [4, 15]: Decreases
- λmax change [4, 15]: Redshift
- carbohydrate can be detected and/or differentiated by the LCO ([4]; Glycogen): can be detected and/or differentiated
- RFU change (Correlation analysis) ([4]; Heparin 5-0.019 mg/ml, 3 μM probe): Unclear
- RFU change (Signal deviation with increasing [Carbohydrate]) ([4]; Heparin 5-0.019 mg/ml, 3 μM probe, spectral analysis, Excitation 300-500, Emission 545): Unclear
- carbohydrate can be detected and/or differentiated by the LCO ([4]; Heparin): can be detected and/or differentiated
- Gradient Parameters (gradient of regression line) ([4]; glycogen concentration vs RFU): −349.2 ± 96.7
- Linear relationship ([4]; glycogen concentration vs RFU): Significant
- Quality of Gradient ([4]; glycogen concentration vs RFU): Negative
- Gradient Parameters (gradient of regression line) ([4]; heparin concentration vs RFU): −12.4 ± 108
- Linear relationship ([4]; heparin concentration vs RFU): Not Significant
- Quality of Gradient ([4]; heparin concentration vs RFU): Horizontal
- Sensitivity ([4]; to glycogen): Yes
- Sensitivity ([4]; to heparin): No
- RFU change (Correlation analysis) ([5]; Glucose 5-0.019 mg/ml, 3 μM probe, probe-specific excitation λ, emission 545 nm): Decreases
- RFU change (Signal deviation with increasing [Carbohydrate]) ([5]; Glucose 5-0.019 mg/ml, 3 μM probe, spectral analysis, Excitation 300-500, Emission 545): Decreases
- carbohydrate can be detected and/or differentiated by the LCO ([5]; Glucose, conclusion from change in signal magnitude and/or shift in λmax): can be detected and/or differentiated
- Gradient Parameters (gradient of regression line) [5, 16]: −116.0 ± 41.0
- Linear relationship [5, 16]: Significant
- Quality of Gradient [5, 16]: Negative
- Sensitivity ([5]; to glucose): Yes
- RFU change (Correlation analysis) ([6]; Chondroitin Sulfate A 5-0.019 mg/ml, 3 μM probe, probe-specific excitation λ, emission 545 nm): Unclear
- RFU change (Signal deviation with increasing [Carbohydrate]) [6, 17]: Decreases
- λmax change [6, 17]: No change
- Gradient Parameters (gradient of regression line) [6, 18]: 125.3 ± 156.5
- Quality of Gradient [6, 18]: Horizontal
- Sensitivity ([6]; to Chondroitin Sulfate A): No
